Literature values as cited in patent US9206237B2, “Cystine knot peptides that bind alpha-V-beta-6 integrin” (priority 2011, dated 2015).
Like-named read-outs stand apart in the source and are kept apart here.

Tests used:
[1] = molecular target: T1, alpha-v-beta-6 (Homo sapiens, UniProt P06756+P18564); conditions: inhibition of RGD-dependent ligand binding; read-out: IC50, isolated receptor assays
Target sequence in this assay (P06756 31-992 limits assumed): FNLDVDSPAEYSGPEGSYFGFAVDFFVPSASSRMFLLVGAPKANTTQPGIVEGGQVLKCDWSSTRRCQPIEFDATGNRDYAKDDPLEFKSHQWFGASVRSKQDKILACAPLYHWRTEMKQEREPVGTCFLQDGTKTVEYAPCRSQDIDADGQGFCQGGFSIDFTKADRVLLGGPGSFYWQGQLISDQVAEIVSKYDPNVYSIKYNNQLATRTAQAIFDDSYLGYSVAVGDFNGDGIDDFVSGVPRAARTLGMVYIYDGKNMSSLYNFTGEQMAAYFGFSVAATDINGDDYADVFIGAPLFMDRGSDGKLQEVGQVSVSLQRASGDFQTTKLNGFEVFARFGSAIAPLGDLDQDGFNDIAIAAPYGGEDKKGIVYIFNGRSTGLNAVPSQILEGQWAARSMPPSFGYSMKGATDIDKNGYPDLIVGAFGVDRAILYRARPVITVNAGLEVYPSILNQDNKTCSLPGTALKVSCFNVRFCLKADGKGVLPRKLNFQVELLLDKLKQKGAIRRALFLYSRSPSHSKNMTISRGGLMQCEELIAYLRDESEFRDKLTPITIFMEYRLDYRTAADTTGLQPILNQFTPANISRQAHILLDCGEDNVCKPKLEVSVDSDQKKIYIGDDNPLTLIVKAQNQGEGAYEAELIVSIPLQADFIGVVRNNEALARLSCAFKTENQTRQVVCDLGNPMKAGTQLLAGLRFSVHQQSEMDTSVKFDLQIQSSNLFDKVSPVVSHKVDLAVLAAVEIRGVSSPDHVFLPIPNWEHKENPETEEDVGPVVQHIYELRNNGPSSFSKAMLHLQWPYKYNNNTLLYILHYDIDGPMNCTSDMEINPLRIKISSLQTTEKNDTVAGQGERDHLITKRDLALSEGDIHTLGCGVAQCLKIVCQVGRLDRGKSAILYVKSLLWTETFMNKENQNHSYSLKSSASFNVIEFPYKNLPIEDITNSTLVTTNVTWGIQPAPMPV
Target sequence in this assay (P18564 22-709 limits assumed): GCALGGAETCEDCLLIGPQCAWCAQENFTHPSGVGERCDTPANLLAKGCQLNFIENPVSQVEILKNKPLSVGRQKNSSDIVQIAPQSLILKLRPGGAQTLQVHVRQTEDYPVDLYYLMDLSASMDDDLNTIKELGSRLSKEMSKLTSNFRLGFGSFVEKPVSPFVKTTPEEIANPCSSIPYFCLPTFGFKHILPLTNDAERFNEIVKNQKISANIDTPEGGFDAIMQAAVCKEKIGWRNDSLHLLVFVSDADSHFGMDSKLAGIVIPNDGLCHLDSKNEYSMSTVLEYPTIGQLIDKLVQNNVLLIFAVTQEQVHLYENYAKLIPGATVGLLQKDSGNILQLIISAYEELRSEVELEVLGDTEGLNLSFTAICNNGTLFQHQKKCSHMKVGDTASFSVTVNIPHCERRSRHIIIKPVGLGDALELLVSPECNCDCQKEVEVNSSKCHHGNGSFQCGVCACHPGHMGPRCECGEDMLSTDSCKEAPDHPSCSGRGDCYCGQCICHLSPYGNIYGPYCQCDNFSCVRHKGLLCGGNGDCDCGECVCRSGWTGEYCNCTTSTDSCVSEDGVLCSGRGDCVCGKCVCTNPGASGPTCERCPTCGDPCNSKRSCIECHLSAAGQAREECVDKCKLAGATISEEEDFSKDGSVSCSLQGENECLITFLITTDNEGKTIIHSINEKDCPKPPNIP

[2] = molecular target: T1, alpha-v-beta-6; conditions: read-out: IC50, cell adhesion assays
Target sequence in this assay (P06756 31-1048): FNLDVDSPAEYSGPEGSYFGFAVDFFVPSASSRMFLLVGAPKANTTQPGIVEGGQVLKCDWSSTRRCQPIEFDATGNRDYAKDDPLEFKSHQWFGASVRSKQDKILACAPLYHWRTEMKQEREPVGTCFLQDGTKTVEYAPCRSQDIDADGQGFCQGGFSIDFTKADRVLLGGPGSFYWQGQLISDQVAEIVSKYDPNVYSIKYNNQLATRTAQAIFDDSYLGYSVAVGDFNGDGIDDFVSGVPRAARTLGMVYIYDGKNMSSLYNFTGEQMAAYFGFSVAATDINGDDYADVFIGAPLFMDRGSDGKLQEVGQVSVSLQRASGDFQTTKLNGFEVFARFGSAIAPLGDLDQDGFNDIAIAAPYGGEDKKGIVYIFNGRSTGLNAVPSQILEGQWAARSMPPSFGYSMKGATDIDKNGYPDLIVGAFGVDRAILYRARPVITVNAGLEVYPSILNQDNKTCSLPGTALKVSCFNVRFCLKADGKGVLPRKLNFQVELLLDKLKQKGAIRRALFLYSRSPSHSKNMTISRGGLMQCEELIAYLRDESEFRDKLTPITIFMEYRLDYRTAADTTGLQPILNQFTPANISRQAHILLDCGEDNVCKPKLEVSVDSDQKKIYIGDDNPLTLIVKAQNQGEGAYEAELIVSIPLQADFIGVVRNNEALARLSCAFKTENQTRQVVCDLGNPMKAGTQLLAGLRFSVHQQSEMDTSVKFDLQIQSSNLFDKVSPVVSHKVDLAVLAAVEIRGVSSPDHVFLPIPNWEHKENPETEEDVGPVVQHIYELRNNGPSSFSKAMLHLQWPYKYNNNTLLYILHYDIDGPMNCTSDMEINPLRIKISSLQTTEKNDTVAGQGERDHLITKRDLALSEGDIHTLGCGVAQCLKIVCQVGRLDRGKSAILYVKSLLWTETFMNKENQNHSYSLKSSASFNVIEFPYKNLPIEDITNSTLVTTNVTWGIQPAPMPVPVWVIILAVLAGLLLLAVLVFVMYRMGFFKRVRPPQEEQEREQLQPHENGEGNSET
Target sequence in this assay (P18564 22-788): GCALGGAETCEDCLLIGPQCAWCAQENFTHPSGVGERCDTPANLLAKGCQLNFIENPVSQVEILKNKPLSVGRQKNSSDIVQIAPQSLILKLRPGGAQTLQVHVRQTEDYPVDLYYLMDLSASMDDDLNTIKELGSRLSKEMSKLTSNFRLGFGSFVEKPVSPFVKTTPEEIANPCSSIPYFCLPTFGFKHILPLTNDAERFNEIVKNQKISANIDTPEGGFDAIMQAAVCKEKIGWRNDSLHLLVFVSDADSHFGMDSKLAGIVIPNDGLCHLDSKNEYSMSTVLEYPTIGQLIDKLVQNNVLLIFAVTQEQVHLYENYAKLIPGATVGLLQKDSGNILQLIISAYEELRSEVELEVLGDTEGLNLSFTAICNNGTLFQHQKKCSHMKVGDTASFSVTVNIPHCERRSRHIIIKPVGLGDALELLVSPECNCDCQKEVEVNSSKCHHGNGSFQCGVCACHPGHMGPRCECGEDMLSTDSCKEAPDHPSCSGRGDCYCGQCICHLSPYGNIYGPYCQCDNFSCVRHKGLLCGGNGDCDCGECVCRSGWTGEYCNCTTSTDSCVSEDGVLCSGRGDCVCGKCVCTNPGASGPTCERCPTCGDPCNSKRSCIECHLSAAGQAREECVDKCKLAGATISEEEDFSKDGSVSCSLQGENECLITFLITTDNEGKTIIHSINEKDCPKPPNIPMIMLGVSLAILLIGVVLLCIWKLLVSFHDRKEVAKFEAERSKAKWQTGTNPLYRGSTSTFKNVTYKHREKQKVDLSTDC

## RTDLDSLRTYTL
[1]
  IC50: 0.02 µM
[2]
  IC50: 50 µM
